Laboratory results taken from patent publication US20210246128A1, “BICYCLE TOPOISOMERASE I INHIBITING COMPOUNDS, PROCESS FOR PREPARATION AND USE THEREOF” (Council of Scientific & Industrial Research, priority 2018, published 2021).
≈ marks a conversion by molar mass, not a printed value. Where two headings read alike, the source gives them in different places.

What was measured:
[1] = Caco-2 permeability (21 day culture of Caco-2 cell monolayer); type: in vitro ADME; conditions: human; for recovery at 120 min, 10 μM: Caco-2, pH 7.4, Caco-2; for Papp A→B at 120 min, 10 μM / Papp B→A at 120 min, 10 μM: pH 7.4, Caco-2, 10 μM; for Papp A→B at 120 min, 10 μM: read-out: Papp Apical to Basal; for Papp B→A at 120 min, 10 μM: read-out: Papp Basal to Apical
Protocol: 5 mL of 100 mM sodium pyruvate, 5 mL of 10× non-essential amino acids, 5 mL of penstrep were added to 100 mL of heat inactivated foetal bovine serum to 385 mL of DMEM aseptically and mixed thoroughly. One vial of Hank's balanced salt (Sigma-H1387) was dissolved in 900 mL of milli Q water; adjusted the pH to 7.4 and made up the volume to 1000 mL with the same. The solution was filter sterilized and stored at 4° C. Stock solution of test compound (10 mM) was prepared in DMSO. 10 mM stock was diluted with HBSS Buffer to a final concentration of 10 μM.
250 μL of DMEM was added to the basal compartment of 96 well multi-screen Caco-2 plate and seeded 12000 cells/well (0.16×10^6 cells/ml) in all the apical wells required and one well with only media as blank without cells, placed the Caco-2 plate in CO2 incubator at 37° C. for proliferation of cells.
On the day of assay, medium was removed and washed twice with HBSS Buffer and incubated with HBSS buffer for 30 min in an incubator and wells with TEER values >230 ohm·cm^2 were selected for the incubation. 75 μL of test compound was added to apical wells and 250 μL of HBSS buffer with 2% BSA was added to basal wells. 25 μL of basal samples was collected at 120 min and processed as stated below.
250 μL of test compound was added to basal wells and 75 μL of HBSS buffer with 2% BSA was added to apical wells. 25 μL of apical samples was collected at 120 min and processed as stated below.
Single point calibration curve in HBSS buffer with 2% BSA was used. Donor samples were diluted 1:1 with HBSS containing 2% BSA and receiver samples were diluted with 1.1 HBSS buffer and precipitated with 200 μL of acetonitrile containing internal standard and vortexed for 5 min @ 1000 rpm, centrifuged at 4000 rpm for 10 min. Finally 100 μL of supernatant was diluted with 200 μL of water and submitted for LC-MS/MS analysis.

[2] = biological target: T1, recombinant human TopI (HTopI) (Homo sapiens, UniProt P11387); assay: Gel based plasmid DNA relaxation assay with recombinant TopI (in vitro); type: biochemical; conditions: for inhibition at 10 µM: read-out: In vitro inhibition at 10 μM; for IC50: plasmid DNA relaxation
T1 sequence (P11387 1-765): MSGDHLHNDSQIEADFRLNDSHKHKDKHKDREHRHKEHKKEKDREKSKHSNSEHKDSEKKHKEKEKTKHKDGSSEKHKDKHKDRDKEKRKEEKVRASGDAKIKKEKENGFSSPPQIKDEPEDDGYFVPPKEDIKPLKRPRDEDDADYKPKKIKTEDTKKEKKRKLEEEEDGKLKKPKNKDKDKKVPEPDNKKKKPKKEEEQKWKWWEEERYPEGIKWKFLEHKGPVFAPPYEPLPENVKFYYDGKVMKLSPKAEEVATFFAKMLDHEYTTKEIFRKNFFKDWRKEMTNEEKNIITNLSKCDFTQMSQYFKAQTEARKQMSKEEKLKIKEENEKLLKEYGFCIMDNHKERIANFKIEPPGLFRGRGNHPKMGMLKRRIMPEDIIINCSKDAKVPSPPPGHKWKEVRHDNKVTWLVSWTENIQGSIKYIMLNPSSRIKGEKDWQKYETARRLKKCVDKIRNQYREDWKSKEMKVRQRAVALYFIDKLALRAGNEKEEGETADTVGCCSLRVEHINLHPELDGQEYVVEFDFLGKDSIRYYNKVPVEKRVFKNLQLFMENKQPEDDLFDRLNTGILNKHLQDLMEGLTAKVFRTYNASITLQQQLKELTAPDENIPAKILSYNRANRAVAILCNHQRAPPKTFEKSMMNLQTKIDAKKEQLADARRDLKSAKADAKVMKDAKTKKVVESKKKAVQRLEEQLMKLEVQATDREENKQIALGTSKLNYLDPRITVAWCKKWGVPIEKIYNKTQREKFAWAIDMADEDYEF
Protocol: (§1) Human ToPI Inhibition in Plasmid DNA Relaxation Assays with Recombinant TopI (In Vitro) or MCF7 Cell Lysates (Ex Vivo)
(§2) Relaxation of supercoiled pBSSK(^+) DNA with recombinant human TopI (HTopI) at a molar ratio of 3:1 at 37° C. for 30 minutes was performed

[3] = Lipophilicity assay (octanol/buffer Log D); conditions: octanol / sodium phosphate buffer pH 7.4
Protocol: 1.56 g NaH2PO4.2H2O was dissolved in 0.5 L water in a 1 L beaker. After adjusting pH to 7.4 using NaOH solution, the volume was made up to 1 L. Equal volumes of sodium phosphate buffer (10 mM, pH 7.4) and n-octanol were added to a separation funnel and mixed thoroughly by shaking and inverting the funnel several times. The two layers were allowed to separate for 2 days and then dispensed in two separate glass bottles. 10 mM stock solution was prepared in 100% DMSO and stored at 4° C. 500 μL of organic phase (1-octanol) was added to each well of a 2 mL deep well plate, followed by 500 μL of buffer and 15 μL of test substance was added. The plate was vortexed for 1 hr on a plate shaker at 1200 rpm. After incubation, the samples were allowed to equilibrate for 20 min and then centrifuged at 4000 rpm for 30 min for complete phase separation and analysed by LC-UV.
Log D=Log(area of octanol/area of buffer)
Mean, SD and % CV for each set of triplicates were calculated

Plasma stability assay = type: in vitro ADME; conditions: pH 7.4, 37° C., 1 μM
Protocol: The stock solution of 10 mM of test compound in DMSO was prepared and stored at 4° C. 25 μM stock of test compound was prepared in acetonitrile: water by diluting from 10 mM stock (i.e. 2.5 μL of 10 mM stock solution was added to 997.5 μL of acetonitrile: water (50:50). The frozen plasma was thawed at room temperature and centrifuged at 1400×RCF (relative centrifugal force) 4° C., for 15 minutes. Approximately 90% of the clear supernatant fraction was transferred to a separate tube and was used for the assay.
For 0 min samples, plasma was heat inactivated at 56° C. for 45 min. To 72 μL of heat inactivated plasma, 3 μL of 25 μM test compound was added. A 25 μL aliquot of the mixture was taken and crashed with 200 μL of acetonitrile containing internal standard and further processed along with other time points. For other time point samples, final working stock of 1 μM was prepared by diluting in plasma (i.e. 8 μL of 25 μM acetonitrile:water stock was added to 192 μL of plasma). 200 μL of plasma containing the test compound was incubated for 2 hrs at 37° C. in shaker water bath with gentle shaking. 25 μL aliquot of sample at 0, 15, 30, 60 and 120 min was precipitated immediately with 200 μL of acetonitrile containing internal standard and centrifuged at 4000×RCF, 4° C. for 20 minutes. 150 μL of supernatant was diluted with 150 μL of water and analyzed on LC-MS/MS.

[4] = biological target: T2, endogenous TopI from the whole cell extracts of human breast adenocarcinoma (MCF7) cell (Homo sapiens, UniProt P11387); assay: Plasmid DNA relaxation assay with MCF7 cell lysates (ex vivo); type: biochemical; conditions: MCF7 cell lysates as source of TopI
T2 construct: TopI enzyme in the extract is conserved in its native structure among a plethora of other cellular proteins; endogenous in cells; host or cells: MCF7 whole cell extract
T2 sequence (P11387 1-765): T1 sequence (P11387 1-765)
Protocol: as §1, §2
cellular extracts were utilized as a source of TopI (ex vivo) in plasmid DNA relaxation assays. TopI enzyme in the extract is conserved in its native structure among a plethora of other cellular proteins.

[5] = Solubility assay (pH 7.4 pION buffer, UV); type: physicochemical; conditions: pH 7.4 pION buffer, aqueous buffer, kinetic from dmso stock; pH 7.4 buffer, 18 hours incubation; read-out: Avg. Solubility (μg/mL) at pH 7.4
Protocol: 5 μL of 20 mM DMSO stock from the stock plate was added to the reaction deep well plate containing 495 μL of pH 7.4 pION buffer (including DMSO control) respectively and the samples were mixed and incubated for 18 hours. The plate was sealed well during the incubation process. The DMSO content in the sample was <1.0%. The concentration in deep well plates was 200 μM. 4 μL of 20 mM stock (including DMSO control) was added to 996 μL of acetonitrile to prepare the working stock plate. 75 μL of working stock was added to 75 μL of blank buffer and read on spectrophotometer as reference plate at 240 nm. At the end of the incubation period, 100 μL of sample from storage plate was vacuum filtered using a filter plate. This step wets the filters and the filtrate was discarded. Another 200 μL of the sample from deep well plate was vacuum filtered in to a new filter collection plate. 75 μL of the filtrate from the filter collection plate was transferred to a UV sample plate. 75 μL of acetonitrile was added to this UV plate. The solution was mixed and the spectrum was read using the UV spectrophotometer at 240 nm. Plates were read on spectramax using SoftMax Pro software version 5.3.

[6] = recombinant human TopI, at 10 μM

Compound: CC(C)NCC(O)COc1cccc2ccccc12 (stereo not drawn) [Propranolol, reference compound]
- recovery at 120 min, 10 μM ([1]; read-out: A to B % Recovery): 68%
- recovery at 120 min, 10 μM ([1]; read-out: B to A % Recovery): 72.7%
- Papp A→B at 120 min, 10 μM [1]: 19.1 ×10⁻⁶ cm/s
- Papp B→A at 120 min, 10 μM [1]: 13.3 ×10⁻⁶ cm/s

Compound: COc1ccc(-c2ccc3ncc(-c4nnc(C)o4)c(NCCN4CCOCC4)c3c2)cc1 [Compound 14, 6-(4-methoxyphenyl)-3-(5-methyl-1,3,4-oxadiazol-2-yl)-N-(2-morpholinoethyl)quinolin-4-amine]
- inhibition at 10 µM [2, 6]: 50%

Compound: COCCc1ccc(OCC(O)CNC(C)C)cc1 (stereo not drawn) [Metoprolol, reference compound]
- Log D @ pH 7.40 Mean [3]: −0.29

Compound: COc1ccc(-c2ccc3ncc(-c4ccc(N)nc4)c(NCCCn4ccnc4)c3c2)cc1 [Compound 73, N-(3-(1H-imidazol-1-yl)propyl)-3-(6-aminopyridin-3-yl)-6-(4-methoxyphenyl)quinolin-4-amine]
- IC50 ([2]; recombinant human TopI): 5.24 µM

Compound: Topotecan [reference compound]
- Mean % remaining at 2 hrs in human Plasma (Plasma stability assay): 11.5%

Compound: COc1ccc(-c2ccc3ncc(-c4nnc(N)o4)c(NCCCn4ccnc4)c3c2)cc1 [Compound 52, 5-(4-(3-(1H-imidazol-1-yl)propylamino)-6-(4-methoxyphenyl)quinolin-3-yl)-1,3,4-oxadiazol-2-amine]
- inhibition at 10 µM [2]: 45%

Compound: CCOC(=O)c1cnc2ccc(-c3ccc(OC)cc3)cc2c1NCCCn1ccnc1 [Compound 78, ethyl 4-((3-(1H-imidazol-1-yl)propyl)amino)-6-(4-methoxyphenyl)quinoline-3-carboxylate]
- inhibition at 10 µM [2, 6]: 35%

Compound: COc1ccc(-c2ccc3ncc(-c4nnco4)c(NCCCn4ccnc4)c3c2)c(OC)c1 [Compound 27, N-(3-(1H-imidazol-1-yl)propyl)-6-(2,4-dimethoxyphenyl)-3-(1,3,4-oxadiazol-2-yl)quinolin-4-amine]
- inhibition at 10 µM [2, 6]: 45%

Compound: Nc1ccc(-c2ccc3ncc(-c4nnco4)c(NCCCn4ccnc4)c3c2)cc1 [Compound 20, N-(3-(1H-imidazol-1-yl)propyl)-6-(4-aminophenyl)-3-(1,3,4-oxadiazol-2-yl)quinolin-4-amine]
- Log D @ pH 7.40 Mean [3]: 2.56
- IC50 ([2]; recombinant human TopI): 0.024 µM
- recovery at 120 min, 10 μM ([1]; read-out: A to B % Recovery): 72.7%
- recovery at 120 min, 10 μM ([1]; read-out: B to A % Recovery): 91.7%
- Papp A→B at 120 min, 10 μM [1]: 0.63 ×10⁻⁶ cm/s
- Papp B→A at 120 min, 10 μM [1]: 44.2 ×10⁻⁶ cm/s
- Mean % remaining at 2 hrs in human Plasma (Plasma stability assay): 91.32%
- IC50 [4]: 2.25 µM

Compound: CNc1c(-c2nnco2)cnc2ccc(-c3ccc(OC)cc3)cc12 [Compound 77, 6-(4-methoxyphenyl)-N-methyl-3-(1,3,4-oxadiazol-2-yl)quinolin-4-amine]
- inhibition at 10 µM [2, 6]: 20%

Compound: Brc1ccc2ncc(-c3nnco3)c(NCCCn3ccnc3)c2c1 [Compound 17, N-(3-(1H-imidazol-1-yl)propyl)-6-bromo-3-(1,3,4-oxadiazol-2-yl)quinolin-4-amine]
- inhibition at 10 µM [2, 6]: 30%

Compound: CCOC(=O)c1cnc2ccc(Br)cc2c1NCCCn1ccnc1 [Compound 15, ethyl 4-((3-(1H-imidazol-1-yl)propyl)amino)-6-bromoquinoline-3-carboxylate]
- inhibition at 10 µM [2, 6]: 30%

Compound: CC(C)[N+](C)(CCOC(=O)C1c2ccccc2Oc2ccccc21)C(C)C [Propantheline, reference compound]
- Mean % remaining at 2 hrs in human Plasma (Plasma stability assay): 0.00%

Compound: COc1ccc(-c2ccc3ncc(-c4nnco4)c(NCCCn4ccnc4)c3c2)cc1C [Compound 28, N-(3-(1H-imidazol-1-yl)propyl)-6-(4-methoxy-3-methylphenyl)-3-(1,3,4-oxadiazol-2-yl)quinolin-4-amine]
- IC50 ([2]; recombinant human TopI): 2.36 µM
- IC50 [4]: 3 µM

Compound: CC(C(=O)O)c1ccc(-c2ccccc2)c(F)c1 (stereo not drawn) [Flurbiprofen, reference compound]
- solubility at 18 h [5]: 54 µg/mL (≈ 221 µM)

Compound: COc1ccc(-c2ccc3ncc(-c4nnc(C)o4)c(NCCCn4ccnc4)c3c2)cc1 [Compound 54, N-(3-(1H-imidazol-1-yl)propyl)-6-(4-methoxyphenyl)-3-(5-methyl-1,3,4-oxadiazol-2-yl)quinolin-4-amine]
- inhibition at 10 µM [2, 6]: 55%

Compound: COc1ccc(-c2ccc3ncc(-c4nnco4)c(NCCCN4CCOCC4)c3c2)cc1 [Compound 43, 6-(4-methoxyphenyl)-N-(3-morpholinopropyl)-3-(1,3,4-oxadiazol-2-yl)quinolin-4-amine]
- Log D @ pH 7.40 Mean [3]: 3.26
- recovery at 120 min, 10 μM ([1]; read-out: A to B % Recovery): 42.6%
- recovery at 120 min, 10 μM ([1]; read-out: B to A % Recovery): 58.5%
- Papp A→B at 120 min, 10 μM [1]: 10.9 ×10⁻⁶ cm/s
- Papp B→A at 120 min, 10 μM [1]: 11 ×10⁻⁶ cm/s
- Mean % remaining at 2 hrs in human Plasma (Plasma stability assay): 83.38%

Compound: Cc1ccc(-c2ccc3ncc(-c4nnco4)c(NCCCn4ccnc4)c3c2)cc1 [Compound 29, N-(3-(1H-imidazol-1-yl)propyl)-3-(1,3,4-oxadiazol-2-yl)-6-p-tolylquinolin-4-amine]
- IC50 ([2]; recombinant human TopI): 1.06 µM
- IC50 [4]: 3.75 µM

Compound: CCCSc1ccc2nc(NC(=O)OC)[nH]c2c1 [Albendazole, reference compound]
- solubility at 18 h [5]: 3.31 µg/mL (≈ 12.5 µM)
